Test results reported in US20130052213A1, “NOVEL IMMUNOMODULATORY PEPTIDE” (Novozymes A/S, priority 2011, published 2013).
No end group written: not given here.

Legend:
TNF [1] = details: human PBMCs stimulated with LPS or another TLR ligand; cited from earlier work
IL-10 [2] = details: human PBMCs stimulated with LPS or another TLR ligand; cited from earlier work
rheumatoid arthritis = details: WO 2010/007168; cited from earlier work
TNF [3] = test: TNF production from LPS-stimulated PBMC (cytometric bead array); format: cell-based, human; details: for TNF production (FIG. 2): human PBMCs stimulated with LPS 0.6 or 20 ng/ml, hBD2 100, 10 or 1 pg/ml, 24 hours
Procedure: (§1) Peripheral blood was drawn from healthy volunteers (with approval from the relevant ethical committee in Denmark). Heparinized blood was diluted 1/1 v/v with RPMI and were subjected to Ficoll density centrifugation within 2 h of drawing. Plasma was collected from the top from individual donors and was kept on ice until it was used at 2% in the culture medium (autologous culture medium). Isolated PBMC were resuspended in autologous culture medium and seeded in 96-well culture plates with 255.000 cells per well in a total of 200 μl. PBMC from the same donor were stimulated with 100, 10 or 1 pg/ml of hBD2 (either full-length or cleaved) either alone or together with LPS at 0.6 ng/ml or 20 ng/ml (E. coli, O111:B4, Sigma L4391), as a control on down-regulation of inflammatory cytokines 3.5 ng/ml Dexamethason (Sigma D8893) and 1 μg/ml Infliximab (Centocur B. V., NCI039843LA) was included. The concentrations of these compounds were based on initial titration studies, where the highest possible concentration without effect of viability was used. The supernatants were collected after incubation at 37° C. for 24 hours, and stored at −80° C.° until cytokine measurement. Viability was measured by Alamar Blue (Biosource, DALL 1100) to be sure that anti-inflammatory effects were not due to toxicity. TNF and IL-10 production in supernatants was measured by flow cytometry with a human inflammation cytometric bead array (CBA) according to manufacturer's instructions (BDBioSciences) on a FACSarray flow cytometer (BDBiosciences). All experiments were performed at least twice on several donors, with representative results shown. The data presented are expressed as mean plus/minus standard deviation (SD). Statistical significance was determined by 2-way ANOVA with the variables being treatment (hBD2, dexamethazone, etc.) and stimulation (LPS) followed by Bonferroni post-test as reported in the table legends. Differences were considered significant for p<0.05.

IL-10 [4] = test: IL-10 production from LPS-stimulated PBMC (cytometric bead array); format: cell-based; details: human PBMCs stimulated with LPS 0.6 or 20 ng/ml; hBD2 100, 10 or 1 pg/ml; Dexamethason 3.5 ng/ml; Infliximab 1 μg/ml; 24 hours
Procedure: as §1, with “toxicity.” for “toxicity. TNF and IL-10 production in supernatants was measured by flow cytometry with a human inflammation cytometric bead array (CBA) according to manufacturer's instructions (BDBioSciences) on a FACSarray flow cytometer (BDBiosciences). All experiments were performed at least twice on several donors, with representative results shown. The data presented are expressed as mean plus/minus standard deviation (SD). Statistical significance was determined by 2-way ANOVA with the variables being treatment (hBD2, dexamethazone, etc.) and stimulation (LPS) followed by Bonferroni post-test as reported in the table legends. Differences were considered significant for p<0.05.”
TNF and IL-10 production in supernatants was measured by flow cytometry with a human inflammation cytometric bead array (CBA) according to manufacturer's instructions (BDBioSciences) on a FACSarray flow cytometer (BDBiosciences).
All experiments were performed at least twice on several donors, with representative results shown. The data presented are expressed as mean plus/minus standard deviation (SD). Statistical significance was determined by 2-way ANOVA with the variables being treatment (hBD2, dexamethazone, etc.) and stimulation (LPS) followed by Bonferroni post-test as reported in the table legends. Differences were considered significant for p<0.05.

| Substance | effect on TNF, previously seen (WO 2010/007166) (TNF [1]) | effect on IL-10, previously seen (WO 2010/007166) (IL-10 [2]) | therapeutic potential in animal model of rheumatoid arthritis (rheumatoid arthritis) | TNF production (FIG. 2) (TNF [3]) | IL-10 production (FIG. 1) (IL-10 [4]) | anti-inflammatory activity in vitro compared with full-length hBD2 (FIGS. 1 and 2) (TNF [3]; human PBMC stimulated with LPS, TNF and IL-10 read-outs) | potency relative to full length hBD2 (FIG. 2) (TNF [3]; human PBMC, TNF production, at some concentrations) |
| --- | --- | --- | --- | --- | --- | --- | --- |
| full-length hBD2: full length human beta defensin 2, produced recombinantly in E. coli (GIGDPVTCLKSGAICHPVFCPRRYKQIGTCGLPGTKCCKKP; ends and bridges not checked; cysteine pairing not given here; listed as Homo sapiens) | downregulation of TNF | upregulation of IL-10 | has shown therapeutic potential | significantly reduced TNF production | significantly induced IL-10 production |  |  |
| PVTCLKSGAICHPVFCPRRYKQIGTCGLPGTKCCKKP [cleaved hBD2] |  |  |  | significantly reduced TNF production | significantly induced IL-10 production | same anti-inflammatory activity in vitro as full-length hBD2 | more potent than full length human beta-defensin 2 |
| Infliximab: anti-TNF antibody, control for anti-inflammatory effects |  |  |  |  | down-regulate IL-10 |  |  |
